Source: US20120270890A1, “Methods of Pancreatic Beta Cell Regeneration” (priority 2011, published 2012)

Tests used:
Format in all cases: in vivo, mice
[1] = system: insulin-positive and glucagon-positive cells of the pancreas; assay: Immunohistochemical marker quantification in pancreas after PDL plus alloxan
Description: (§1) Six- to ten-week old C57/B6 or ICR (Institute of Cancer Research) mice (Harlan Sprague Dawley, Inc.; Placentia, Calif., USA) were injected intravenously with Alloxan (Sigma Aldrich, St. Louis, Mo., USA) at 90 mg/kg. PDL was conducted essentially as described with the following minor modifications. Approximately 50% of the pancreas (the head) remained proximal to the ligation. For the mice receiving PDL plus A, PDL was performed 30 minutes after alloxan injection. Only mice with a blood sugar greater than 500 mg/dl (checked 48 hours after alloxan injection) were selected for experiments. Those mice were injected subcutaneously once daily with insulin glargine (Sanofi-Aventis, Paris, France).
Immunohistochemical Staining—Tissue was fixed in 4% formaldehyde for 6 hours at 4° C., washed in PBS (Phosphate buffered saline), followed by overnight in 30% sucrose at 4° C., then embedded in OCT (Optimal Cutting Temperature) compound and frozen at […]. Cryosections of 5 um thickness were incubated with antisera specific for insulin (1/200, guinea pig, USBIO, Swampscott, Mass., USA), insulin (1/200, rabbit, Santa Cruz Biotechnology, Santa Cruz, Calif., USA), glucagon (1/2,000, mouse, Sigma-Aldrich, St. Louis, Mo., USA), glucagon (1/50, rabbit, Abcam, Cambridge, Mass., USA), cytokeratin (Wide Spectrum Screening; 1/500, rabbit, DakoCytomation, Glostrup, Denmark), somatostatin (1/200, goat, Santa Cruz Biotechnology, Santa Cruz, Calif., USA), KI67 (1/50, mouse, BD Pharmingen, San Diego, Calif., USA), MafA (1/100, rabbit, Bethyl Laboratories, Montgomery, Tex., USA), MafB (1/100, rabbit, Bethyl Laboratories, Montgomery, Tex., USA), PDX1 (1/2,000, goat, Abcam, Cambridge, Mass., USA), Nkx6.1 (1/1,000, mouse, Beta Cell Biology Consortium, Nashville, Tenn., USA), 5-bromodeoxyuridine (BrdU; mouse, GE healthcare, Piscataway, N.J., USA), and C-peptide (1/100, rabbit, Cell Signaling, Danvers, Mass., USA). Secondary antibodies for detection of guinea pig, rabbit, goat, or mouse antibodies were labeled with: Alexa Fluor 488 (Invitrogen, Carlsbad, Calif., USA), Rhodamine Red (Jackson ImmunoResearch Laboratories, West Grove, Pa., USA), Cy5 (Jackson ImmunoResearch Laboratories, West Grove, Pa., USA). Nuclei were visualized with DAPI (40,6-diamidino-2-phenylindole) (Sigma Aldrich, St. Louis, Mo., USA).
Image and Statistical Analysis—All images were acquired by confocal scanning microscopy (Radiance 2100/AGR-3Q BioRad Multi-photon Laser Point Scanning Confocal Microscope). Images were processed with Image J software. The colocalization patterns in FIG. 4, FIGS. 18 and 19 were determined by the colocalization threshold algorithm in WCIF image J. Confocal z stacks were captured at 0.5 lm increments. Three dimensional reconstructions and measurements were performed by using Volocity software (version 5.3). Statistical significance of cell-specific changes in controls versus experimental groups was calculated by an unpaired Student's t-test. We considered p-values below 0.05 as statistically significant. For all statistical analysis, Graphpad Prism 5 was used. All results are expressed as mean±SD.

[2] = Mortality and glycemia following PDL plus alloxan
Description: as §1
The initial insulin dose was 1 unit per mouse (around […] in weight). If hyperglycemia was not controlled at that dose, it was raised gradually until diabetes was controlled. Even with careful management of diabetes, the mortality following PDL plus alloxan was high, around 50%.

[3] = system: β-cells; assay: β-cell elimination and β-cell mass after alloxan injection, with or without PDL
Description: as §1
Quantitation of β-cell Mass—β-cell mass was calculated as the relative β-cell area multiplied by pancreatic weight. For the quantitative analysis of insulin (+) cell area, we studied sections spaced 100 lm apart from each other from the tail of the pancreas per mouse. These sections were incubated with antisera to insulin (1:200, rabbit, Santa Cruz Biotechnology, Santa Cruz, Calif., USA) and the bound antibody was visualized by DAB (3,30-Diaminobenzidine) (Vector Laboratories, Burlingame, Calif., USA). The nuclei were stained by Hematoxylin (Surgipath, Richmond, Ill., USA). All slides were scanned and analyzed by using the Aperio ScanScope XT system (version 10, Aperio Technologies, Vista, Calif.).

[4] = 14 days following alloxan plus PDL
[5] = seven days following PDL plus alloxan

SMILES: O=C1NC(=O)C(=O)C(=O)N1 [alloxan]
- insulin-positive cells coexpressing glucagon ([1]; 1 week following PDL plus alloxan): 58%
- frequency of replicating insulin-positive cells (Ki67) ([1]; 3 days following alloxan plus PDL): 0.98%
- replication rate of glucagon-positive cells ([1]; 7 days following PDL plus alloxan): 5%
- insulin-positive cells coexpressing glucagon ([1]; 14 days following PDL plus alloxan): 21%
- β-cells expressing MafA [1, 4]: 63%
- β-cells expressing MafB [1, 4]: 22%
- α-cells expressing PDX1 ([1]; PDL plus alloxan, within 1 week): 11%
- frequency of replicating insulin-positive cells (Ki67) ([1]; day 7 following PDL plus alloxan): 6%
- frequency of replicating insulin-positive cells (Ki67) ([1]; day 14 following PDL plus alloxan): decreased to basal levels
- insulin positive cells expressing MafA [1, 5]: 26%
- insulin positive cells expressing MafB [1, 5]: 64%
- normoglycemia ([2]; PDL plus alloxan): did not achieve normoglycemia
- mortality ([2]; following PDL plus alloxan, with insulin glargine management of diabetes): around 50%
- residual β-cells, of pre-existing β-cells ([3]; after alloxan): less than 1%
- pre-existing β-cells eliminated ([3]; alloxan injection, by 3 days after injection): 99%
- β-cell regeneration ([3]; alloxan treatment alone, two weeks later): no evidence of β-cell regeneration
- change in β-cell mass ([3]; alloxan, between 3 and 14 days after injection): no change in the β-cell mass
- β-cells eliminated ([3]; following PDL plus alloxan): greater than 99%
